Measurements taken from PubChem BioAssay AID2060614 (Molecular Pharmacology Branch, DTP, NCI, 2025).
“And” between values parts separate entries of the source, which are not always exact repeats. Equal values may be shown once.

Test system: 598228-144-R-J1-PDC complex spheroids, viability
Test: Anticancer human tumor 598228-144-R-J1-PDC patient-derived serous endometrial adenocarcinoma cell line growth inhibition [CLK]
Settings: for viability, T/C: stronger effect = lower value
Text: A high-throughput screen of multi-cell type tumor spheroids was designed to identify active combinations of […] and targeted small molecules. Complex spheroids include a stromal component modeled by human endothelial cells (HUVEC) and fibroblasts modeled by human mesenchymal stem cells (MSCs). The concentration ranges selected for each drug and investigational agent were based upon clinically achievable concentrations if the clinical Cmax of the agent was known.
Compounds. The drugs and investigational agents: cirtuvivint (SM08502; NSC835563), CC-671 (NSC850746), vemurafenib (NSC761431), tapotoclax (NSC804041), sotorasib (NSC818433), adagrasib (NSC831453), MRTX-1133 (NSC836407), BAY2416964 (NSC825713), copanlisib (NSC816437), inavolisib (NSC800729), abemaciclib (NSC768073), osimertinib (NSC779217), entinostat (NSC756642), eltanexor (KPT-8602, NSC794443), venetoclax (NSC766270), ceralasertib (NSC777638), bortezomib (NSC756655), olaparib (NSC753686), talazoparib (NSC767125), alisertib (NSC759677), peposertib (NSC802822), gemcitabine (NSC613327), 5-fluorouracil (NSC19893), SN-38 (NSC673596), oxaliplatin (NSC266046), paclitaxel (NSC125973), and doxorubicin (NSC123127), were obtained from the National Cancer Institute (NCI) Developmental Therapeutics Program Chemical Repository. The FDA-approved anticancer drug set is available from the Developmental Therapeutics Program at https://dtp.cancer.gov/organization/dscb/obtaining/available plates.htm. […] The stock solutions were prepared in dimethyl sulfoxide (DMSO, Sigma-Aldrich, St. Louis, MO, cat. D2650), except for the platinum complexes which were prepared in saline (Quality Biological, Gaithersburg, MD, cat. 114-055-101), at 800-fold the tested concentration and stored at -70 degrees C prior to their use. All drugs and investigational agents were tested over a range starting from a high concentration at or near the clinical Cmax and decreasing in half-log increments. If the clinical Cmax for an agent had not been determined, the highest concentration tested was 10 microM.
Cell Culture. All cells were maintained in an incubator at 37 degrees C and 5% CO2 with 95% humidity. The PDC lines were cultured according to standard operating procedures established by the NCI PDMR. Briefly, all PDCs were thawed and cultured in Matrigel-coated flasks prepared with a working solution of 1X Ham's F-12 nutrient mix, without supplementation (Invitrogen, Waltham, MA, cat. 11765054), 100 U/mL penicillin-streptomycin (Invitrogen, cat. 15140122), and 2.5% Matrigel (Corning Inc., Corning, NY, cat. 354248) for the first three passages. The 947758-054-R-J2-PDC line was cultured in 6B/Colon 1A media, which includes advanced DMEM/F-12 (Thermo Fisher Scientific, cat. 12634028), 10 mM HEPES (Thermo Fisher Scientific, cat. 15630080), 1X GlutaMAX supplement (Thermo Fisher Scientific, cat. 35050061), 0.1 mg/mL primocin (InvivoGen, cat. ant-pm-2), 10% defined fetal bovine serum, heat inactivated (HyClone Laboratories Inc., cat. SH30070.03HI), 1.25 mM N-Acetyl-L-cysteine (Sigma-Aldrich, cat. A9165), 10 mM nicotinamide (Sigma-Aldrich, cat. N0636), 1X B-27 supplement (Thermo Fisher Scientific, cat. 17504044), 1X N-2 supplement (Thermo Fisher Scientific, cat. 17502048), and 10 microM Y-27632 dihydrochloride (Tocris Bioscience, cat. 1254). The 876862-298-R-J1-PDC was cultured in 6E media, which includes all 6B/Colon 1A media components plus 50% L-WRN conditioned media (ATCC, cat. CRL-3276), 50 ng/mL recombinant human EGF recombinant protein (hEGF; Thermo Fisher Scientific, cat. PHG0311), 10 ng/mL recombinant human fibroblast growth factor 10 (hGFG-10; PeproTech, cat. 100-26), 1 ng/mL recombinant human fibroblast growth factor 2 (hFGF-2; PeproTech, cat. 100-18B), and 1 µM prostaglandin E2 (PGE2; Tocris, cat. 2296). The 227483-062-R1-J1-PDC line was cultured in Panc media, containing all 6E components except hFGF-2, with the addition of 500 nM SB-431542 (Selleckchem, cat. S1067) and 10 nM gastrin (Tocris, cat. 3006). […]

[1] = curve of first compound, second compound 0.0316 µM
[2] = curve of first compound, second compound 0.1 µM
[3] = curve of first compound, second compound 0.316 µM
[4] = curve of first compound, second compound 1 µM
[5] = curve of first compound, second compound 3.16 µM
[6] = curve of first compound, second compound 10 µM
[7] = second compound 0.0316 µM, first compound 0.0316 µM
[8] = second compound 0.0316 µM, first compound 0.1 µM
[9] = second compound 0.0316 µM, first compound 0.316 µM
[10] = second compound 0.0316 µM, first compound 1 µM
[11] = second compound 0.0316 µM, first compound 3.16 µM
[12] = second compound 0.0316 µM, first compound 10 µM
[13] = second compound 0.1 µM, first compound 0.0316 µM
[14] = second compound 0.1 µM, first compound 0.1 µM
[15] = second compound 0.1 µM, first compound 0.316 µM
[16] = second compound 0.1 µM, first compound 1 µM
[17] = second compound 0.1 µM, first compound 3.16 µM
[18] = second compound 0.1 µM, first compound 10 µM
[19] = second compound 0.316 µM, first compound 0.0316 µM
[20] = second compound 0.316 µM, first compound 0.1 µM
[21] = second compound 0.316 µM, first compound 0.316 µM
[22] = second compound 0.316 µM, first compound 1 µM
[23] = second compound 0.316 µM, first compound 3.16 µM
[24] = second compound 0.316 µM, first compound 10 µM
[25] = second compound 1 µM, first compound 0.0316 µM
[26] = second compound 1 µM, first compound 0.1 µM
[27] = second compound 1 µM, first compound 0.316 µM
[28] = second compound 1 µM, first compound 1 µM
[29] = second compound 1 µM, first compound 3.16 µM
[30] = second compound 1 µM, first compound 10 µM
[31] = second compound 3.16 µM, first compound 0.0316 µM
[32] = second compound 3.16 µM, first compound 0.1 µM
[33] = second compound 3.16 µM, first compound 0.316 µM
[34] = second compound 3.16 µM, first compound 1 µM
[35] = second compound 3.16 µM, first compound 3.16 µM
[36] = second compound 3.16 µM, first compound 10 µM
[37] = second compound 10 µM, first compound 0.0316 µM
[38] = second compound 10 µM, first compound 0.1 µM
[39] = second compound 10 µM, first compound 0.316 µM
[40] = second compound 10 µM, first compound 1 µM
[41] = second compound 10 µM, first compound 3.16 µM
[42] = second compound 10 µM, first compound 10 µM
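Also: spheroids exposed to compounds for seven days before readout.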
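For viability, T/C in this document: 100% = DMSO vehicle control wells.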

For COC1C=CCC(C)C(C)S(=O)(=O)NC(=O)c2ccc3c(c2)N(CC2CCC21)CC1(CCCc2cc(Cl)ccc21)CO3 (stereo unspecified) + CN1CCN(c2cc(C(=O)Nc3cc4cc(-c5cnn(C)c5)ccc4cn3)ccn2)CC1, the IC50 [1] was 4710 nM, the IC50 [2] was 5350 nM and the IC50 [3] was under 31.6 nM. For the same compound, the IC50 [4] was under 31.6 nM, the IC50 [5] was under 31.6 nM and the IC50 [6] was under 31.6 nM. The viability, T/C [7] was 128%, the viability, T/C [8] was 107% and the viability, T/C [9] was 85.1%. It also gave a viability, T/C [10] of 75%, a viability, T/C [11] of 69.2% and a viability, T/C [12] of 29.5%. The viability, T/C [13] was 122%, the viability, T/C [14] was 111% and the viability, T/C [15] was 86%. It also gave a viability, T/C [16] of 76.9%, a viability, T/C [17] of 65.5% and a viability, T/C [18] of 36.4%. The viability, T/C [19] was 15.7%, the viability, T/C [20] was 18.8% and the viability, T/C [21] was 16.8%. It also gave a viability, T/C [22] of 16.6%, a viability, T/C [23] of 20.5% and a viability, T/C [24] of 18.9%. The viability, T/C [25] was 1.74%, the viability, T/C [26] was 1.81% and the viability, T/C [27] was 3.02%. It also gave a viability, T/C [28] of 1.14%, a viability, T/C [29] of 1.71% and a viability, T/C [30] of 4.93%. For the same compound, the viability, T/C [31] was 1.85%, the viability, T/C [32] was 3.92% and the viability, T/C [33] was 1.47%. It also gave a viability, T/C [34] of 1.24%, a viability, T/C [35] of 2.51% and a viability, T/C [36] of 3.08%. The viability, T/C [37] was 0.94%, the viability, T/C [38] was 0.82% and the viability, T/C [39] was 0.72%. For the same compound, the viability, T/C [40] was 0.85%, the viability, T/C [41] was 2.37% and the viability, T/C [42] was 3.73%.

With O=C(c1cc(Cc2n[nH]c(=O)c3ccccc23)ccc1F)N1CCN(C(=O)C2CC2)CC1 the viability, T/C (compound 0.0316 µM) was 93.1% and 97.7%, the viability, T/C (compound 0.1 µM) was 87.5% and 104% and the viability, T/C (compound 0.316 µM) was 95.4% and 94.2%. For the same compound, the viability, T/C (compound 1 µM) was 94.4% and 105%, the viability, T/C (compound 3.16 µM) was 97.5% and 103% and the viability, T/C (compound 10 µM) was 88% and 87.2%. It also gave an IC50 (curve of compound) of over 10000 nM.

O=C(c1cc(Cc2n[nH]c(=O)c3ccccc23)ccc1F)N1CCN(C(=O)C2CC2)CC1 + CN1CCN(c2cc(C(=O)Nc3cc4cc(-c5cnn(C)c5)ccc4cn3)ccn2)CC1 showed an IC50 [1] of over 10000 nM, an IC50 [2] of over 10000 nM and an IC50 [3] of under 31.6 nM. The IC50 [4] was under 31.6 nM, the IC50 [5] was under 31.6 nM and the IC50 [6] was under 31.6 nM. The viability, T/C [7] was 123%, the viability, T/C [8] was 120% and the viability, T/C [9] was 114%. The viability, T/C [10] was 118%, the viability, T/C [11] was 116% and the viability, T/C [12] was 103%. It also gave a viability, T/C [13] of 130%, a viability, T/C [14] of 119% and a viability, T/C [15] of 107%. It also gave a viability, T/C [16] of 126%, a viability, T/C [17] of 125% and a viability, T/C [18] of 131%. The viability, T/C [19] was 16.7%, the viability, T/C [20] was 17.2% and the viability, T/C [21] was 18.8%. It also gave a viability, T/C [22] of 14.9%, a viability, T/C [23] of 13.7% and a viability, T/C [24] of 14.9%. The viability, T/C [25] was 1.51%, the viability, T/C [26] was 1.3% and the viability, T/C [27] was 2.76%. It also gave a viability, T/C [28] of 1.57%, a viability, T/C [29] of 2.8% and a viability, T/C [30] of 3.04%. It also gave a viability, T/C [31] of 1.72%, a viability, T/C [32] of 1.59% and a viability, T/C [33] of 1.74%. The viability, T/C [34] was 2.04%, the viability, T/C [35] was 2.75% and the viability, T/C [36] was 4.75%. The viability, T/C [37] was 0.94%, the viability, T/C [38] was 0.9% and the viability, T/C [39] was 1.84%. For the same compound, the viability, T/C [40] was 1.05%, the viability, T/C [41] was 1.89% and the viability, T/C [42] was 3.42%.
